Kd data for 22 molecules are collected here from patent publication US20050171172A1, “Amide derivatives as PDGFR modulators” (Ambit Biosciences Corporation, priority 2003, published 2005).

pKd: −log10 of the molar value. Some results are limits rather than exact numbers.

In the test the target is T1, human PDGFR-β (Homo sapiens, UniProt P09619).
T1 construct: made in house
T1 sequence (P09619 33-1106): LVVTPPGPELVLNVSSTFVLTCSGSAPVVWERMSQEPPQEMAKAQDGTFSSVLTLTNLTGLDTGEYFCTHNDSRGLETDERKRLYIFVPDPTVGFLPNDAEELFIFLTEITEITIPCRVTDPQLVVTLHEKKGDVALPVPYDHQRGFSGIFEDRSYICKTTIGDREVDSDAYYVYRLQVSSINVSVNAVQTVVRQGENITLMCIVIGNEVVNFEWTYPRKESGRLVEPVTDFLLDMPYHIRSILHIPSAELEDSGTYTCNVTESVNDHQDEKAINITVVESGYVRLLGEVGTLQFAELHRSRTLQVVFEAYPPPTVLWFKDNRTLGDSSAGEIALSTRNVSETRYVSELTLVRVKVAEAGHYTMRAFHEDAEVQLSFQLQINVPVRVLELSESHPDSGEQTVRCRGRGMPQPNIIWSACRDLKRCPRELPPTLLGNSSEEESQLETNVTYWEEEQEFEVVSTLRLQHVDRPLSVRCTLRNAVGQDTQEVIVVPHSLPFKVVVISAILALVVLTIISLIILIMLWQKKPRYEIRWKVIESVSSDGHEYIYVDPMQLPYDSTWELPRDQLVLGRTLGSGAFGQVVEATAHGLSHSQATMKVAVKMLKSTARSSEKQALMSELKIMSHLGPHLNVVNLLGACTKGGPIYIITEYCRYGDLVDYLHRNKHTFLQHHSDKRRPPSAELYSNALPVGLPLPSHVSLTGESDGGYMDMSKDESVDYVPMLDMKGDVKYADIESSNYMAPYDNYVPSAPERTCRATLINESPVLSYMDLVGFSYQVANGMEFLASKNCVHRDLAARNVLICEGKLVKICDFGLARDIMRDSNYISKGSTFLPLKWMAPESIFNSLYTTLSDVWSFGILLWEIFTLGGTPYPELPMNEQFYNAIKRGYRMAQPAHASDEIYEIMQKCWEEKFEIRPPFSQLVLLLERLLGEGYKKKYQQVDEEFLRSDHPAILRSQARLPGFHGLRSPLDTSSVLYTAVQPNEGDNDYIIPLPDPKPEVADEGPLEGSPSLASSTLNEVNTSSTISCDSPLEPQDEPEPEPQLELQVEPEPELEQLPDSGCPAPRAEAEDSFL
Put plainly: phage-display-based competitive binding assay for PDGFR-β. To be noted: T7 phage displaying human PDGFR-β; Kd class; read-out: Binding Assay:PDGFRB (DKIN). The method, then: The term “ND” represents non-determined values.
Kd values for the interactions between PDGFR-β and candidate small molecule ligands were measured by a phage-display-based competitive binding assay that is described in detail in U.S. Ser. No. 10/406,797 filed 2 Apr. 2003 and incorporated herein by reference. Briefly, T7 phage displaying human PDGFR-β were incubated with an affinity matrix coated with known PDGFR-β inhibitor in the presence of various concentrations of the soluble competitor molecules. […] The Kd for the interaction between the soluble competitor molecule and PDGFR-β is equal to the concentration of soluble competitor molecule that causes a 50% reduction in the number of phage recovered in the eluate compared to a control sample lacking soluble competitor. Kd values for the interaction between PDGFR-β and several small molecules are shown in below: […]
As to `CC(C)(C)c1cc(NC(=O)Cc2ccc(Br)cc2)on1`, the pKd is more than 7.00.

`COc1cccc2cc([C@H](C)C(=O)Nc3cc(C(C)(C)C)on3)ccc12`: the pKd was 6.00 to 7.00.

Turning to `CC(C)(C)c1cc(NC(=O)Cc2ccc(NC(=O)c3ccc4cnccc4n3)cc2)no1`, the pKd is more than 7.00.

In the case of `CC(C)(C)c1cc(NC(=O)Cc2ccc(NC(=O)c3cnc4ccccc4c3)cc2)no1`, the pKd was more than 7.00.

Regarding `Cc1nn(C)c(Cl)c1C(=O)Nc1ccc(CC(=O)Nc2cc(C(C)(C)C)on2)cc1`, the pKd is 6.00 to 7.00.

Take `O=C(Cc1ccc(OCc2ccccc2)cc1)Nc1nc2ccccc2s1`: the pKd is less than 5.00.

Turning to `CC(C)(C)c1cc(NC(=O)Cc2ccc(NC(=O)c3cccc4cccnc34)cc2)no1`, the pKd was 5.00 to 6.00.

With `CC(C)(C)c1cc(NC(=O)Cc2ccc(F)cc2)on1`, the pKd is 6.00 to 7.00.

Take `CC(C)(C)c1cc(NC(=O)Cc2ccc(Cl)cc2)on1`: the pKd was 6.00 to 7.00.

In the case of `O=C(Cc1ccc(OCc2ccccc2)cc1)Nc1nc(-c2ccc(Cl)cc2)cs1`, the pKd was less than 5.00.

Turning to `Cc1cc(C)n(C(=O)Nc2ccc(Cl)cc2)n1`, the pKd was less than 5.00.

Regarding `CC(C)(C)c1cc(NC(=O)Cc2ccc(O)cc2)no1`, the pKd is less than 5.00.

Take `COc1ccc(CC(=O)Nc2cc(C(C)(C)C)no2)cc1`: the pKd was more than 7.00.

Take `CSc1ncc(Br)c(C(=O)Nc2ccc(CC(=O)Nc3cc(C(C)(C)C)on3)cc2)n1`: the pKd is more than 7.00.

Take `CC(C)(C)c1cc(NC(=O)Sc2ccc(Cl)cc2)no1`: the pKd was less than 5.00.

Turning to `Cc1csc(NC(=O)Cc2ccc(OCc3ccccc3)cc2)n1`, the pKd is less than 5.00.

With `Cn1cc(C(=O)Nc2ccc(CC(=O)Nc3cc(C(C)(C)C)on3)cc2)c2ccccc21`, the pKd was more than 7.00.

In the case of `COc1cccc2sc(NC(=O)Cc3ccc(OCc4ccccc4)cc3)nc12`, the pKd was less than 5.00.

In the case of `Cc1cnc(NC(=O)Cc2ccc(OCc3ccccc3)cc2)s1`, the pKd was less than 5.00.

On to `CC(C)(C)c1cc(NC(=O)Cc2ccc(OCc3ccccc3)cc2)on1`, for which the pKd was more than 7.00.

On to `COc1ccc(SC(=O)Nc2cc(C(C)(C)C)on2)cc1`, for which the pKd was 5.00 to 6.00.

With `CC(C)Cc1ccc(C(C)C(=O)Nc2ccnn2-c2ccccc2)cc1` (stereo not shown), the pKd was less than 5.00.
